Laboratory results published in patent US20200289480A1, “PERGOLIDE FOR USE IN THE TREATMENT OF EYE DISEASES ASSOCIATED WITH AN ELEVATED LEVEL OF VASCULAR ENDOTHELIAL GROWTH FACTOR (VEGF) AND PHARMACEUTICAL COMPOSITION CONTAINING PERGOLIDE” (priority 2017, published 2020).

Columns and labels:
[1] = system: development of normal blood vessels; experiment: zebrafish embryo model, development of normal blood vessels; type: in vivo, zebrafish (Danio rerio); settings: for effect on the development of normal blood vessels: lower concentrations (below 2.5 μmol: 50 nmol, 100 nmol, 500 nmol, 1 μmol)
Experimental: (§1) In studies on the effect of various substances on VEGF release and action, among others, a laboratory model using zebrafish (Danio rerio) is employed. The study tested 3 substances with potential inhibitory activity towards VEGF release and action which belong to the group of dopaminergic receptor D2 agonists—bromocriptine, cabergoline and pergolide. The study was conducted on the model using transgenic zebrafish embryos (Zebrafish Fli strain) with labelled blood system, illuminating under the fluorescent microscope. Photographic documentation was collected using Stereo Discover v8 fluorescent microscope, fluorescence 200c hxp, from Carl Zeiss Microscopy GmbH. During the study, the development of normal blood vessels and pathological blood vessels (abnormal angiogenesis) was observed. Abnormal angiogenesis was induced with the use of cobalt chloride (CoCl2) in a dose of 5 mM which was administered to the culture medium. The study tested the inhibitory effect of bromocriptine, cabergoline and pergolide on the development of normal blood vessels, as well as the inhibition of abnormal angiogenesis in 5 increasing concentrations of these substances: 50 nmol, 100 nmol, 500 nmol, 1 μmol, 2.5 μmol, dissolved in dimethyl sulfoxide (DMSO) and administered to the culture medium. Any changes in the development of natural (FIG. 1) and pathological blood vessels (FIG. 2) were recorded 72 an 96 hours after the administration of a tested substance and a tested substance with CoCl2, respectively. The level of inhibition of normal and pathological blood vessels development in tested embryos was compared to the activity of bevacizumab (Avastin) at the concentration of 2.5 μg/ml, which is an anti-VEGF recombinant humanised monoclonal antibody (FIGS. 3).

[2] = system: pathological blood vessels (abnormal angiogenesis) induced with CoCl2; experiment: zebrafish embryo model, CoCl2-induced abnormal angiogenesis; type: in vivo, zebrafish (Danio rerio); settings: for effect on the development of pathological blood vessels: lower concentrations (below 2.5 μmol: 50 nmol, 100 nmol, 500 nmol, 1 μmol); for effect on the development of pathological blood vessels / inhibition of growth of pathological eye blood vessels / inhibition of growth of ventral vessels: CoCl2 5 mM; for inhibitory effect compared with other agents: qualitative comparison in the angiogenesis model
Experimental: as §1, with “3). 72 and 96 after CoCl2 administration, the increase in the number of pathological eye blood vessels and the abnormal morphology thereof in the eyes (FIG. 2) as well as of ventral vessels (FIGS. 4 and 5) was observed.” for “3).”

[3] = 2.5 μmol in culture medium, transgenic Zebrafish Fli embryos, recorded 72 and 96 hours
[4] = 2.5 μmol in culture medium, recorded 72 and 96 hours

CC(C)C[C@H]1C(=O)N2CCC[C@H]2[C@]2(O)O[C@](NC(=O)[C@@H]3C=C4c5cccc6[nH]c(Br)c(c56)C[C@H]4N(C)C3)(C(C)C)C(=O)N12 [bromocriptine]
effect on the development of normal blood vessels [1]: no inhibitory effect | effect on the development of pathological blood vessels [2]: no inhibitory effect

C=CCN1C[C@H](C(=O)N(CCCN(C)C)C(=O)NCC)C[C@@H]2c3cccc4[nH]cc(c34)C[C@H]21 [cabergoline]
inhibition of growth of normal eye blood vessels [1, 3]: partial inhibition | effect on the development of normal blood vessels [1]: no significant effect | inhibition of growth of pathological eye blood vessels [2, 4]: full inhibition | inhibition of growth of ventral vessels [2, 4]: full inhibition | inhibition of abnormal ventral vessels growth ([2]; 2.5 μmol, 72 hours, FIG. 8): Full inhibition | effect on the development of ventral vessels ([2]; lower concentrations (below 2.5 μmol)): no significant effect | effect on the development of pathological blood vessels [2]: no significant effect | inhibitory effect compared with other agents [2]: more potent compared to bromocriptine

CCCN1C[C@H](CSC)C[C@@H]2c3cccc4[nH]cc(c34)C[C@H]21 [pergolide]
inhibition of growth of normal eye blood vessels ([1]; 1.0 μmol in culture medium): partial inhibition | inhibition of normal ventral vessels growth ([1]; 1 μmol, 72 hours, FIG. 9): Partial inhibition | inhibition of growth of normal eye blood vessels [1, 3]: full inhibition | inhibition of growth of pathological eye blood vessels ([2]; 1.0 μmol in culture medium): full inhibition | inhibition of growth of ventral vessels ([2]; 1.0 μmol in culture medium): full inhibition | inhibition of growth of pathological eye blood vessels [2, 4]: full inhibition | inhibition of growth of ventral vessels [2, 4]: full inhibition | inhibitory effect on the development of normal and pathological blood vessels (overall conclusion) ([2]; conclusion from all concentrations tested): potent inhibitory effect | inhibitory effect compared with other agents [2]: more potent than for known agents

bevacizumab
inhibition of CoCl2-induced abnormal vascular growth (eye) ([2]; 2.5 μmol, 96 hours, FIG. 3): Inhibition
